{
  "source": "patent US20200079766A1",
  "about": "“MONOCYCLIC OGA INHIBITOR COMPOUNDS” (Janssen Pharmaceutica NV, priority 2016, published 2020)",
  "key": {"[1]": {"tested_on": "OGA in HEK293 cells inducible for P301L mutant human Tau (isoform 2N4R)", "assay": "OGA cellular assay: immunocytochemical detection of O-GlcNAcylated proteins (CTD110.6 antibody) after 6 h incubation", "format": "cell-based", "conditions": "Homo sapiens, HEK293, 6 h", "summary_of_the_method": "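Low-glucose medium, 6 h compound exposure at 0.2% DMSO; cells PFA-fixed and O-GlcNAc ICC signal imaged at 488 nm (9 fields/well), Hoechst nuclei counted for toxicity. Thiamet G 200 uM on each plate as maximum; IC50 from non-linear regression.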"}, "[2]": {"target": "T1, recombinant human Meningioma Expressed Antigen 5 (MGEA5), also referred to as O-GlcNAcase (OGA) (Homo sapiens, UniProt O60502)", "T1 construct": "Full length OGA enzyme was purchased at OriGene (cat # TP322411); purchased OriGene TP322411", "T1 sequence (O60502 1-916)": "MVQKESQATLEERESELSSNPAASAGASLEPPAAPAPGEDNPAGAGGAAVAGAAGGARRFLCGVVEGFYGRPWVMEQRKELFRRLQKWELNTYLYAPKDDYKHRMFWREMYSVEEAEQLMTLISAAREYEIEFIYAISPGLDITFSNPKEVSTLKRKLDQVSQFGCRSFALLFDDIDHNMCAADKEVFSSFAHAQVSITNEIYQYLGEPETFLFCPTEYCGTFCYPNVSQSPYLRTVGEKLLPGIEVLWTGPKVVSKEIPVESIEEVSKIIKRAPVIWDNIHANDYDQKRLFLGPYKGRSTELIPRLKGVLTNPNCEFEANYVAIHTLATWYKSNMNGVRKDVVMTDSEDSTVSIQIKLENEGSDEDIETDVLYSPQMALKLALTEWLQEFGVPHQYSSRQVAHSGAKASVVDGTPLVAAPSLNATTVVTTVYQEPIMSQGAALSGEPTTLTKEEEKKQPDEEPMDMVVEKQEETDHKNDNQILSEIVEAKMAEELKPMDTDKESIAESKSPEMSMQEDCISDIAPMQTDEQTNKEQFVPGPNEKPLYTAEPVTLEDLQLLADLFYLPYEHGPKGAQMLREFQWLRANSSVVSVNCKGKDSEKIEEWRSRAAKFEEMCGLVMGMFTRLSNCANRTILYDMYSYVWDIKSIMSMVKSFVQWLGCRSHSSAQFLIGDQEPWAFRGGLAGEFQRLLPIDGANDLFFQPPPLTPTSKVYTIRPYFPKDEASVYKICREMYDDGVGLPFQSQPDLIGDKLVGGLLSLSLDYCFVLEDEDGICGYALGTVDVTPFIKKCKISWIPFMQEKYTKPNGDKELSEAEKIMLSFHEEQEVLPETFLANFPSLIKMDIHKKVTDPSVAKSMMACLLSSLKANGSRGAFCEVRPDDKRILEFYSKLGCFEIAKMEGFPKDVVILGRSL", "assay": "OGA biochemical assay: inhibition of FM-GlcNAc hydrolysis, fluorescence; protocol A (10 nM OGA, 1 h) or protocol B (2 nM OGA, 6 h)", "conditions": "Enzymatic protocol B (2 nM OGA, 6 h)", "summary_of_the_method": "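Full-length human OGA in 200 mM citrate/phosphate pH 7.2 with 0.005% Tween-20, compound pre-incubated 60 min at RT, then 100 uM FM-GlcNAc (final); 10 nM enzyme for 1 h or 2 nM for 6 h at RT. Stopped with pH 11.0 carbonate; fluorescein read at ex 485/em 538 nm. IC50 and Hill coefficient from curve fit.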"}},
  "data": [
    {"compound": "CC(=O)Nc1ncc(CN2CCC(Cc3cncc(C)n3)C2)s1", "note": "(centres unmarked) [compound 108]", "values": [
      {"measurement": "Emax", "setting": "[1]; maximum = Thiamet G 200 uM", "result": 78.9, "unit": "%"},
      {"measurement": "EC50", "setting": "[1]; read-out: Cellular hOGA, pEC50 (converted)", "result": 155, "unit": "nM"},
      {"measurement": "melting point", "result": 118.3, "unit": "°C"},
      {"measurement": "Emax", "setting": "[2]", "result": 103, "unit": "%"},
      {"measurement": "IC50", "setting": "[2]; read-out: Enzymatic hOGA, pIC50 (converted)", "result": 33.1, "unit": "nM"}
    ]}
  ]
}
